Measured values published in ChEMBL document CHEMBL4507290 (2021).

Experiments:
[1] = target: AP2-associated protein kinase 1 (Homo sapiens) (UniProt Q2M2I8); conditions: Compound concentration 1000.0 nM
[2] = test system: Tyrosine-protein kinase ABL1 (Homo sapiens), P00519 [M351T]; conditions: Compound concentration 1000.0 nM
[3] = target: Activin receptor type-1-like (Homo sapiens) (UniProt P37023); conditions: Compound concentration 1000.0 nM
[4] = target: ALK tyrosine kinase receptor (Homo sapiens) (UniProt Q9UM73); conditions: Compound concentration 1000.0 nM
[5] = target: 5'-AMP-activated protein kinase catalytic subunit alpha-1 (Homo sapiens) (UniProt Q13131); conditions: Compound concentration 1000.0 nM
[6] = target: 5'-AMP-activated protein kinase catalytic subunit alpha-2 (Homo sapiens) (UniProt P54646); conditions: Compound concentration 1000.0 nM
Chain of 5'-AMP-activated protein kinase catalytic subunit alpha-2 (Homo sapiens) (P54646 whole entry, looked up): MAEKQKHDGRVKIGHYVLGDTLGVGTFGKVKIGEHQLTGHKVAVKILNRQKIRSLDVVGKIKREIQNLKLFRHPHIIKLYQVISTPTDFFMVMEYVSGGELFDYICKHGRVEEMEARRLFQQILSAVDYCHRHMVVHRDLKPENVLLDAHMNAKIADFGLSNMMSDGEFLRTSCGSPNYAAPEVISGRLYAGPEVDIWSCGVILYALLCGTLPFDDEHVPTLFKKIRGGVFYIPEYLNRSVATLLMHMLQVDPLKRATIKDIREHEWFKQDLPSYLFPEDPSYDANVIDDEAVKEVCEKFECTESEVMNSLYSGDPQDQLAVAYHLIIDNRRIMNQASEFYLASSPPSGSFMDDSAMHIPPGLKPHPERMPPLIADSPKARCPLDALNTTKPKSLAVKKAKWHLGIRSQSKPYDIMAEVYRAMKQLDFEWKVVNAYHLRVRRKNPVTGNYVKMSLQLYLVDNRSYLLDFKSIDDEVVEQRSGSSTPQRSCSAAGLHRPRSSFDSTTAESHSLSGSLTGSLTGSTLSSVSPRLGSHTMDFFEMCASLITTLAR

[7] = target: Mitogen-activated protein kinase kinase kinase 5 (Homo sapiens) (UniProt Q99683); conditions: Compound concentration 1000.0 nM
[8] = target: Calcium/calmodulin-dependent protein kinase type IV (Homo sapiens) (UniProt Q16566); conditions: Compound concentration 1000.0 nM
[9] = target: Cyclin-dependent kinase 4 (Homo sapiens) (UniProt P11802); conditions: Compound concentration 1000.0 nM
[10] = target: Cyclin-dependent kinase 7 (Homo sapiens) (UniProt P50613); conditions: Compound concentration 1000.0 nM
[11] = target: Cyclin-dependent kinase 8 (Homo sapiens) (UniProt P49336); conditions: Compound concentration 1000.0 nM
Chain of Cyclin-dependent kinase 8 (Homo sapiens) (P49336 whole entry): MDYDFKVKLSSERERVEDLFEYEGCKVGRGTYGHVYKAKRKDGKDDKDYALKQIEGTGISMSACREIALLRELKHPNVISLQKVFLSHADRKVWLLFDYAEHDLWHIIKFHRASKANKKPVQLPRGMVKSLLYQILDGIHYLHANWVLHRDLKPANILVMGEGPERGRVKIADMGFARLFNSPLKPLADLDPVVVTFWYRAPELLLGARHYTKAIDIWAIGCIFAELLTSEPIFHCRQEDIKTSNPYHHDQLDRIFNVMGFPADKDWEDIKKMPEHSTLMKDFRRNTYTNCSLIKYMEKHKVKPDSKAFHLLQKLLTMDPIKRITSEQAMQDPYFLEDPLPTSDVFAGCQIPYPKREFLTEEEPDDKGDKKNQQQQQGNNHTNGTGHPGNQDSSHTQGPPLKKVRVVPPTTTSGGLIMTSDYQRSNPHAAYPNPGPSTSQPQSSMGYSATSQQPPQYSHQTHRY

[12] = target: Dual specificity protein kinase CLK4 (Homo sapiens) (UniProt Q9HAZ1); conditions: Compound concentration 1000.0 nM
Chain of Dual specificity protein kinase CLK4 (Homo sapiens) (Q9HAZ1 whole entry, looked up, canonical isoform): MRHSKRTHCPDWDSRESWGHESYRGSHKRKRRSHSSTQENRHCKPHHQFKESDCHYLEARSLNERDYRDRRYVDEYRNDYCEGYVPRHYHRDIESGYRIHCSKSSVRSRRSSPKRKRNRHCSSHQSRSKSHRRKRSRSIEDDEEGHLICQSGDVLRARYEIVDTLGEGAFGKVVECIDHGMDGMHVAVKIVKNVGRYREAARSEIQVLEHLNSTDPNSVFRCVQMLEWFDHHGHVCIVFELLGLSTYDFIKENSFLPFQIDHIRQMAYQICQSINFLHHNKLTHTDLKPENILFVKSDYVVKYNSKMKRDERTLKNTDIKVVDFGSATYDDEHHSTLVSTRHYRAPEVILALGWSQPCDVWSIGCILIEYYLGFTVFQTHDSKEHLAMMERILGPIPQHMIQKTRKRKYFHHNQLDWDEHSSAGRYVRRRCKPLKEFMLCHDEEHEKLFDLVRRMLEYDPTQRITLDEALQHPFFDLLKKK

[13] = target: Casein kinase I isoform gamma-3 (Homo sapiens) (UniProt Q9Y6M4); conditions: Compound concentration 1000.0 nM
[14] = target: Death-associated protein kinase 2 (Homo sapiens) (UniProt Q9UIK4); conditions: Compound concentration 1000.0 nM
[15] = target: Death-associated protein kinase 3 (Homo sapiens) (UniProt O43293); conditions: Compound concentration 1000.0 nM
[16] = target: Serine/threonine-protein kinase 17B (Homo sapiens) (UniProt O94768); conditions: Compound concentration 1000.0 nM
[17] = test system: Epidermal growth factor receptor (Homo sapiens), P00533 [UNDEFINED MUTATION]; conditions: Compound concentration 1000.0 nM
[18] = target: Ephrin type-A receptor 3 (Homo sapiens) (UniProt P29320); conditions: Compound concentration 1000.0 nM
[19] = target: Ephrin type-A receptor 5 (Homo sapiens) (UniProt P54756); conditions: Compound concentration 1000.0 nM
Chain of Ephrin type-A receptor 5 (Homo sapiens) (P54756 whole entry): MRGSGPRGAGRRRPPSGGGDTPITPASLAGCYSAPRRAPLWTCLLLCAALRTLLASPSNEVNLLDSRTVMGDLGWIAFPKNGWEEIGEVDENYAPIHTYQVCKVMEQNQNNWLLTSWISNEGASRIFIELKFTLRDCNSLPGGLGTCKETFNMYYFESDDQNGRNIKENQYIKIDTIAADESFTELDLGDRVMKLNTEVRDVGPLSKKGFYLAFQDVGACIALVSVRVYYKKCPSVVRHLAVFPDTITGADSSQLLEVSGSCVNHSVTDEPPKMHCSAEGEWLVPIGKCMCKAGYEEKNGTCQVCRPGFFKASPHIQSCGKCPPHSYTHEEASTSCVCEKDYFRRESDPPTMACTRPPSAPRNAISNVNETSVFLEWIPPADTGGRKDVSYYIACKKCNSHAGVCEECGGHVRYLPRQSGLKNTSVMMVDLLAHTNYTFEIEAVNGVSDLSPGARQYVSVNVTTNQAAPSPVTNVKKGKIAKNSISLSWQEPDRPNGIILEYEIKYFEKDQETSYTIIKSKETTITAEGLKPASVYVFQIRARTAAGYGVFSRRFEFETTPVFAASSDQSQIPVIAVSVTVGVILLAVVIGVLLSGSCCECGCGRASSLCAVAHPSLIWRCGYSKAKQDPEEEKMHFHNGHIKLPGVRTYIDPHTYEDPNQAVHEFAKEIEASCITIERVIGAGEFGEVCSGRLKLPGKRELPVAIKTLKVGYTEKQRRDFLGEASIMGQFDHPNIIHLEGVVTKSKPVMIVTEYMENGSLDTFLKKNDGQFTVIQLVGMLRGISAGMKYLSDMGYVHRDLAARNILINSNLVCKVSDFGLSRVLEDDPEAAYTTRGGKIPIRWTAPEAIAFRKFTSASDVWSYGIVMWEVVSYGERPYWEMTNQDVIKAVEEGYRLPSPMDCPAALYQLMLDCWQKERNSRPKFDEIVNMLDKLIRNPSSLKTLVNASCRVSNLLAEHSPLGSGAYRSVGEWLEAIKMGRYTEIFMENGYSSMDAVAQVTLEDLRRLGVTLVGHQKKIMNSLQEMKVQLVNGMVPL

[20] = target: Ephrin type-A receptor 6 (Homo sapiens) (UniProt Q9UF33); conditions: Compound concentration 1000.0 nM
Chain of Ephrin type-A receptor 6 (Homo sapiens) (Q9UF33 whole entry): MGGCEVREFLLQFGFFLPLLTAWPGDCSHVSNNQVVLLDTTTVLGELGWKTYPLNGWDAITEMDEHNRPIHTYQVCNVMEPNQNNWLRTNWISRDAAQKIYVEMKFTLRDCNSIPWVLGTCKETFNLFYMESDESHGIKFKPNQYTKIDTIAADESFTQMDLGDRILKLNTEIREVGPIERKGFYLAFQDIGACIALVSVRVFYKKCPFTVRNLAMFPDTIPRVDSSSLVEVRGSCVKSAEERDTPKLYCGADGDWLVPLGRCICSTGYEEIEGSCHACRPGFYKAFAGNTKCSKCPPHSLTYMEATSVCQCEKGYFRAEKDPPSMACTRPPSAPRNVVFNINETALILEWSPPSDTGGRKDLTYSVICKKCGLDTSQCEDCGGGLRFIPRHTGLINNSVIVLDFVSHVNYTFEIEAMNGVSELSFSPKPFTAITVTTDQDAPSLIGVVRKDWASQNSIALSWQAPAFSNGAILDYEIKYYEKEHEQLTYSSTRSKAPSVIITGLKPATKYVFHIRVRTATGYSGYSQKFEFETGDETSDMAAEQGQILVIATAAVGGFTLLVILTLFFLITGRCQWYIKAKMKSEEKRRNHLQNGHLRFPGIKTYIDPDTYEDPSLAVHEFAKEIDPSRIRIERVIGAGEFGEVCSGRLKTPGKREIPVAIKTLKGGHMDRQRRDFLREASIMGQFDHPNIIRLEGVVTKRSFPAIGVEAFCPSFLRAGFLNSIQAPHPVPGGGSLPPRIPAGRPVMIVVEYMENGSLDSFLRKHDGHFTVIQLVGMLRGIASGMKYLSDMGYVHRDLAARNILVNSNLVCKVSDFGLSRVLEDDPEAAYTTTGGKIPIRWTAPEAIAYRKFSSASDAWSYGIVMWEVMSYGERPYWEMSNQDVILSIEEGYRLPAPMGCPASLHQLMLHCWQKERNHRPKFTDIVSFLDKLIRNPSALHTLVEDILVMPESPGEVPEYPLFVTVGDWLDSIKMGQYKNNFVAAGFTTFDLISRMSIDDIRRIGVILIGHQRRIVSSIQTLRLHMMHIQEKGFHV

[21] = target: Receptor tyrosine-protein kinase erbB-3 (Homo sapiens) (UniProt P21860); conditions: Compound concentration 1000.0 nM
[22] = target: Receptor-type tyrosine-protein kinase FLT3 (Homo sapiens) (UniProt P36888); conditions: Compound concentration 1000.0 nM
[23] = test system: Receptor-type tyrosine-protein kinase FLT3 (Homo sapiens), P36888 [D835Y]; conditions: Compound concentration 1000.0 nM
[24] = target: Homeodomain-interacting protein kinase 3 (Homo sapiens) (UniProt Q9H422); conditions: Compound concentration 1000.0 nM
Chain of Homeodomain-interacting protein kinase 3 (Homo sapiens) (Q9H422 whole entry, looked up): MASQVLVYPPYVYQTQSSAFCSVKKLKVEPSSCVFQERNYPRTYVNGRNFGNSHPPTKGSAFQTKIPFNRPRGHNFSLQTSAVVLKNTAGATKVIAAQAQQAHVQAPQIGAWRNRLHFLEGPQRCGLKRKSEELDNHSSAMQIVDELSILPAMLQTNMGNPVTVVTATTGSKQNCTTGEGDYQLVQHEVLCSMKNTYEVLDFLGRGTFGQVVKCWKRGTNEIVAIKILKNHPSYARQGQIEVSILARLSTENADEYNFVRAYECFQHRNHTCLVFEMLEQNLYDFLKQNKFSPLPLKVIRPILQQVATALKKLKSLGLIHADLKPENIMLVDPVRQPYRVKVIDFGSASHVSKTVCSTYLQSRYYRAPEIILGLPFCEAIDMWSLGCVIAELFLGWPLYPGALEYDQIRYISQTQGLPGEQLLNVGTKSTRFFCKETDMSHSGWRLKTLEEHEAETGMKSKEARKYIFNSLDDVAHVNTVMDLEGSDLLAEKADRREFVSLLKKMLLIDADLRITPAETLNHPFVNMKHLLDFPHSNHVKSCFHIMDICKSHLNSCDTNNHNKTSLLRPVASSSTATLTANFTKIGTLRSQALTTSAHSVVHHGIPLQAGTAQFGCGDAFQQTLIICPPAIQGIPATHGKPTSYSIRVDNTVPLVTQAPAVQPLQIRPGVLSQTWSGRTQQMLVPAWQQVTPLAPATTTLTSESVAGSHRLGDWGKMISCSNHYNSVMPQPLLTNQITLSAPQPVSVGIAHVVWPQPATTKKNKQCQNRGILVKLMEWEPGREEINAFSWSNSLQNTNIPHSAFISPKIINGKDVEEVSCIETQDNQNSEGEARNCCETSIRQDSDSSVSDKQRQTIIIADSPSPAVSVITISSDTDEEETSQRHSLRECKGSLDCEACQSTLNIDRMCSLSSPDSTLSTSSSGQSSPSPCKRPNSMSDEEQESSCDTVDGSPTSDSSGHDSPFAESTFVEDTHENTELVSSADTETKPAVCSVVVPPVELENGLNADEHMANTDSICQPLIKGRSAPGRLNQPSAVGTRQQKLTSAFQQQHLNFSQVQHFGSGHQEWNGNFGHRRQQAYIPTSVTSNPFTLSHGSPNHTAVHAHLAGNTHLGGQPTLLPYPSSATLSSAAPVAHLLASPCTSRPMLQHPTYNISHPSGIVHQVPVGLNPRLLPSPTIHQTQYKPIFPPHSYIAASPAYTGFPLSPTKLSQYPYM

[25] = target: Mitogen-activated protein kinase 10 (Homo sapiens) (UniProt P53779); conditions: Compound concentration 1000.0 nM
[26] = target: Mitogen-activated protein kinase kinase kinase 15 (Homo sapiens) (UniProt Q6ZN16); conditions: Compound concentration 1000.0 nM
[27] = target: Mitogen-activated protein kinase kinase kinase 2 (Homo sapiens) (UniProt Q9Y2U5); conditions: Compound concentration 1000.0 nM
[28] = target: Mitogen-activated protein kinase kinase kinase kinase 4 (Homo sapiens) (UniProt O95819); conditions: Compound concentration 1000.0 nM
[29] = target: Myosin light chain kinase, smooth muscle (Homo sapiens) (UniProt Q15746); conditions: Compound concentration 1000.0 nM
[30] = target: Myosin light chain kinase family member 4 (Homo sapiens) (UniProt Q86YV6); conditions: Compound concentration 1000.0 nM
[31] = target: Myosin-IIIa (Homo sapiens) (UniProt Q8NEV4); conditions: Compound concentration 1000.0 nM
[32] = target: Serine/threonine-protein kinase Nek2 (Homo sapiens) (UniProt P51955); conditions: Compound concentration 1000.0 nM
[33] = target: Mitogen-activated protein kinase kinase kinase 14 (Homo sapiens) (UniProt Q99558); conditions: Compound concentration 1000.0 nM
[34] = target: Serine/threonine-protein kinase PAK 3 (Homo sapiens) (UniProt O75914); conditions: Compound concentration 1000.0 nM
[35] = target: Platelet-derived growth factor receptor beta (Homo sapiens) (UniProt P09619); conditions: Compound concentration 1000.0 nM
[36] = test system: Phosphatidylinositol 4,5-bisphosphate 3-kinase catalytic subunit alpha isoform (Homo sapiens), P42336 [H1047L]; conditions: Compound concentration 1000.0 nM
[37] = test system: Phosphatidylinositol 4,5-bisphosphate 3-kinase catalytic subunit alpha isoform (Homo sapiens), P42336 [H1047Y]; conditions: Compound concentration 1000.0 nM
[38] = target: Phosphatidylinositol 4,5-bisphosphate 3-kinase catalytic subunit beta isoform (Homo sapiens) (UniProt P42338); conditions: Compound concentration 1000.0 nM
[39] = target: Proto-oncogene tyrosine-protein kinase receptor Ret (Homo sapiens) (UniProt P07949); conditions: Compound concentration 1000.0 nM
[40] = target: Rho-associated protein kinase 1 (Homo sapiens) (UniProt Q13464); conditions: Compound concentration 1000.0 nM
[41] = target: Serine/threonine-protein kinase SIK1 (Homo sapiens) (UniProt P57059); conditions: Compound concentration 1000.0 nM
[42] = target: Serine/threonine-protein kinase TAO2 (Homo sapiens) (UniProt Q9UL54); conditions: Compound concentration 1000.0 nM
[43] = target: NT-3 growth factor receptor (Homo sapiens) (UniProt Q16288); conditions: Compound concentration 1000.0 nM
[44] = target: Testis-specific serine/threonine-protein kinase 1 (Homo sapiens) (UniProt Q9BXA7); conditions: Compound concentration 1000.0 nM
[45] = target: D(4) dopamine receptor (Homo sapiens) (UniProt P21917); conditions: Compound concentration 10.0 uM

CN([C@@H]1CCc2c(CC(=O)O)c3ccccc3n2C1)S(=O)(=O)c1ccc(F)cc1 [MK-7246]
residual activity [1]: 100%
residual activity [2]: 100%
residual activity [3]: 88%
residual activity [4]: 78%
residual activity [5]: 100%
residual activity [6]: 100%
residual activity [7]: 100%
residual activity [8]: 85%
residual activity [9]: 87%
residual activity [10]: 82%
residual activity [11]: 100%
residual activity [12]: 100%
residual activity [13]: 100%
residual activity [14]: 100%
residual activity [15]: 87%
residual activity [16]: 85%
residual activity [17]: 100%
residual activity [18]: 95%
residual activity [19]: 99%
residual activity [20]: 91%
residual activity [21]: 100%
residual activity [22]: 100%
residual activity [23]: 100%
residual activity [24]: 71%
residual activity [25]: 100%
residual activity [26]: 100%
residual activity [27]: 100%
residual activity [28]: 100%
residual activity [29]: 100%
residual activity [30]: 100%
residual activity [31]: 100%
residual activity [32]: 100%
residual activity [33]: 100%
residual activity [34]: 98%
residual activity [35]: 97%
residual activity [36]: 100%
residual activity [37]: 97%
residual activity [38]: 88%
residual activity [39]: 100%
residual activity [40]: 34%
residual activity [41]: 71%
residual activity [42]: 82%
residual activity [43]: 100%
residual activity [44]: 100%
inhibition [45]: 3.14%

CN([C@@H]1CCc2c(CC(=O)O)c3cc(S(C)(=O)=O)ccc3n2C1)S(=O)(=O)c1ccc(F)cc1
residual activity [1]: 100%
residual activity [2]: 86%
residual activity [3]: 100%
residual activity [4]: 80%
residual activity [5]: 85%
residual activity [6]: 100%
residual activity [7]: 90%
residual activity [8]: 87%
residual activity [9]: 90%
residual activity [10]: 87%
residual activity [11]: 100%
residual activity [12]: 100%
residual activity [13]: 100%
residual activity [14]: 100%
residual activity [15]: 97%
residual activity [16]: 85%
residual activity [17]: 100%
residual activity [18]: 97%
residual activity [19]: 78%
residual activity [20]: 91%
residual activity [21]: 100%
residual activity [22]: 100%
residual activity [23]: 100%
residual activity [24]: 68%
residual activity [25]: 100%
residual activity [26]: 93%
residual activity [27]: 89%
residual activity [28]: 100%
residual activity [29]: 94%
residual activity [30]: 100%
residual activity [31]: 100%
residual activity [32]: 100%
residual activity [33]: 76%
residual activity [34]: 79%
residual activity [35]: 86%
residual activity [36]: 96%
residual activity [37]: 90%
residual activity [38]: 100%
residual activity [39]: 100%
residual activity [40]: 6%
residual activity [41]: 87%
residual activity [42]: 100%
residual activity [43]: 100%
residual activity [44]: 100%
inhibition [45]: 2.8%
